Measured values published in article PMC8998978, “Toward a Treatment of Cancer: Design and In Vitro/In Vivo Evaluation of Uncharged Pyrazoline Derivatives as a Series of Novel SHP2 Inhibitors” (International Journal of Molecular Sciences, 2022).

Assays:
HCT116 cells xenograft = experiment: Anti-tumor activity in vivo, HCT116 xenograft model; design: species or system BALB/c-nude mice
Protocol: Male BALB/c-nude mice (Jinan Pengyue Experimental Animal Breeding Co., Ltd., Jinan, China), 5 weeks of age, were used. The mice were housed in a specific pathogen-free room with temperature controlled (22 ± 2 °C), humidity (55 ± 10%) and a light/dark cycle of 12 h, providing sterile food and water. The HCT116 cells xenograft model was conducted, and 1 × 10^7 HCT116 cells were subcutaneously injected into the right armpit of mice. The tumor volume of mice was measured every three days to evaluate the tumor growth. When the tumor volume reached about 100 mm^3, the mice were randomly divided into four groups (n = 6), and treated with vehicle (0.5% CMC-Na solution) or 4o (25, 50 mg/kg) by gavage once a day for 13 consecutive days. A total of 25 mg/kg 5-FU was used as a positive control. The body weight of mice was measured every three days. The length (L) and width (W) of tumors were measured by electronic caliper every three days. The volume (V) was calculated as follows: V = (L × W^2)/2. When the tumor volume reached about 1000 mm^3, the tumors were excised. Immunohistochemical analysis were used to evaluate the related protein levels.

[1] = target: T1, recombinant human SHP2 protein (Homo sapiens, UniProt Q06124); experiment: SHP2 inhibition assay (pNPP substrate); assay type: biochemical; conditions: pNPP 4 mM, SHP2 240 nM, 37 °C, 30 min; means ± SD
T1 sequence (Q06124 1-593): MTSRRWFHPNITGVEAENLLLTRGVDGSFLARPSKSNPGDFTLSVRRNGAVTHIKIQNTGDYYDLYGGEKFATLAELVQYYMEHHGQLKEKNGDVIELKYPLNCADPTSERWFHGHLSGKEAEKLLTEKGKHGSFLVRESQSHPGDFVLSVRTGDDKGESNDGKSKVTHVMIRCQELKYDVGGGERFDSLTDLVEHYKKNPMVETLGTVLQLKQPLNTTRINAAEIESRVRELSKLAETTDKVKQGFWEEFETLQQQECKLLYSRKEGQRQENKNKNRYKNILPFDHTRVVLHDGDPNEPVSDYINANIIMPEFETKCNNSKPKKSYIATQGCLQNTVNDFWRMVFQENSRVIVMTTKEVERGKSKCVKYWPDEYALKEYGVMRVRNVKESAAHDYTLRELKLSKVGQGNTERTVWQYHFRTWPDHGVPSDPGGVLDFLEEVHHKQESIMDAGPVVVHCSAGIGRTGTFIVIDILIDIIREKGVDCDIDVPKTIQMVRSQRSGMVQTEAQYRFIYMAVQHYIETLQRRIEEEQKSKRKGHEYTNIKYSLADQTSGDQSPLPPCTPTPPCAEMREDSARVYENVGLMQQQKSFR
Protocol: pGEX-4T1 SHP2 WT (plasmid #8322) was purchased from Addgene. […] Then, 0.2 mM IPTG (Sangon Biotech, Shanghai, China) was added to induce the expression of protein at 30 °C for 4 h followed by centrifugation and cells collection. Cells were then broken by ultrasound in lysis buffer (20 mM Tris–HCl (pH 8.0), 100 mM KCl, 10% glycerol, 1 mM DTT, 0.5% Triton X-100) on ice. The supernatant was collected by centrifugation at 10,000× g for 15 min at 4 °C. The BeaverBeads GSH (Beaver Biosciences Inc., Guangzhou, China) washed by lysis buffer were incubated with the supernatant for 2 h at 4 °C. […] Then, the experiment was performed in a final volume of 100 μL containing 10 mM Tris–HCl (pH 7.5), 25 mM NaCl, 1 mM EDTA and 4 mM pNPP in a 96-well plate at 37 °C for 30 min. The amount of product p-nitrophenol was determined by the absorbance at 405 nm in a multimode reader (Berthold Technologies GmbH & Co.KG, Bad Wildbad, Baden Württemberg, Germany). The IC50 value was calculated by GraphPad Prism 7.0 software (GraphPad Inc, San Diego, CA, USA).

[2] = system: RAS/MAPK signaling pathway in HCT116 cells; experiment: RAS activation assay and p-Erk Western blotting; assay type: cell-based, human; conditions: HCT116, 4o 2.5, 5 and 10 μM, 12 h, dose-dependent, versus DMSO
Protocol: (§1) HCT116 cells were harvested, lysed on ice in RIPA buffer (Beyotime Institute of Biotechnology, Shanghai, China) and boiled. Protein concentration was measured by BCA protein assay kit (Beyotime Institute of Biotechnology, Shanghai, China). The protein samples were separated by SDS-PAGE and transferred to the membrane (Pall, New York, NY, USA). Afterwards, the membrane was immunoblotted with the corresponding primary antibody (C-parp (#5625), C-cas9 (#9505), C-cas3 (#9661), Bcl-2 (#4223), Bax (#5023), SHP2 (#3752), P-Erk1/2 (#9101) and Erk1/2 (#9102), 1:1000, Cell Signaling Technology, Danvers, MA, USA; Tubulin (#ET1602-4), 1:5000, HUABIO, Hangzhou, China) and the appropriate HRP-conjugated secondary antibody, and determined with ECL detection reagent (Thermo Scientific, Waltham, MA, USA).
Active RAS (RAS-GTP) was pulled down from HCT116 cells. Cells were seeded in 6-well plates and treated with different concentrations of 4o for 12 h after overnight serum starvation. Cells were stimulated with 100 ng/mL hEGF for 5 min before cell lysis. On the basis of protein extraction and quantification, RAS activation assay biochem kit (Cytoskeleton Inc., Denver, CO, USA) was used for detection according to the requirements of manufacturers.

HCT116 cells = experiment: Western blotting of apoptosis-related proteins; assay type: cell-based, human; conditions: HCT116, 4o 2.5, 5 and 10 μM, 24 h, versus DMSO
Protocol: as §1

SMILES: CCOc1ccc(Oc2ccc(C3=NN(C4=NC(=O)CS4)C(c4cc(O)c(O)c(Br)c4Br)C3)cc2)cc1 (stereo not drawn) [Compound 4o, 2-(5-(2,3-dibromo-4,5-dihydroxyphenyl)-3-(4-(4-ethoxyphenoxy)phenyl)-4,5-dihydro-1H-pyrazol-1-yl)thiazol-4(5H)-one]
- Tumor inhibition rate (HCT116 cells xenograft; 4o 25 mg/kg by gavage once daily, 13 days): 58.8%
- Tumor inhibition rate (HCT116 cells xenograft; 4o 50 mg/kg by gavage once daily, 13 days): 67.2%
- Effect on body weight of tumor-bearing mice (HCT116 cells xenograft; 4o 25, 50 mg/kg or 5-FU 25 mg/kg, 13 days): did not have any obvious effect on the body weight
- Expression of Ki67 and p-Erk in tumors (immunohistochemistry) (HCT116 cells xenograft; 4o 25, 50 mg/kg, 13 days): significantly decreased
- Tumor weight (HCT116 cells xenograft; 4o 25, 50 mg/kg, after 13 days, versus vehicle): much lighter
- IC50 [1]: 1.56 ± 0.25 µM
- Levels of RAS-GTP and p-Erk [2]: decreased
- Bax/Bcl-2 ratio (HCT116 cells): up-regulated
- Levels of cleaved parp, cleaved caspase9 and cleaved caspase3 (HCT116 cells): increased
